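All cell lines were grown in 96-well plates and treated with compound for 48 hours. At the GI50, growth is halved.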 Activity calls are given as the source filed them. Cut-off read from the data, not from the text of the source: active = GI50 up to about 1.1 µM and inactive = higher.
Key:
Test in all cases: NCI tumour cell line growth inhibition, 48 h
COLO 205 = tested on: COLO 205
UACC-257 = tested on: UACC-257
TK-10 = tested on: TK-10
SK-MEL-5 = tested on: SK-MEL-5
CCRF-CEM = tested on: CCRF-CEM
SF-295 = tested on: SF-295
LXFL 529 = tested on: LXFL 529
SK-MEL-28 = tested on: SK-MEL-28
RXF 393 = tested on: RXF 393
HCT-116 = tested on: HCT-116
EKVX = tested on: EKVX
M14 = tested on: M14
SK-MEL-2 = tested on: SK-MEL-2
SNB-19 = tested on: SNB-19

Measured: GI50

C/C(CC(=O)Nc1ccccc1C)=N/NS(=O)(=O)c1ccc(C)cc1
inactive: COLO 205 > 100 µM | UACC-257 > 100 µM | TK-10 > 100 µM | SK-MEL-5 > 100 µM | CCRF-CEM > 100 µM | SF-295 > 100 µM | LXFL 529 > 100 µM | SK-MEL-28 > 100 µM | RXF 393 > 100 µM | HCT-116 > 100 µM | EKVX > 100 µM | M14 > 100 µM | SK-MEL-2 > 100 µM

Cn1ccnc1CCc1c(Cl)cccc1Cl
inactive: COLO 205 > 100 µM | UACC-257 > 100 µM | TK-10 > 100 µM | SK-MEL-5 > 100 µM | CCRF-CEM > 100 µM | SF-295 > 100 µM | LXFL 529 > 100 µM | SK-MEL-28 > 100 µM | RXF 393 > 100 µM | HCT-116 > 100 µM | M14 > 100 µM | SK-MEL-2 > 100 µM

CCCC(C)C[C@@H](C)CC(C)/C=C(\C)c1oc(=O)c(C)c(O)c1C.CC[C@@H](C)C[C@@H](C)C[C@@H](C)/C=C(\C)c1oc(=O)c(C)c(O)c1C (some centres not stated)
inactive: COLO 205 28.2 µM | UACC-257 14.7 µM | TK-10 19.5 µM | SF-295 12.8 µM | LXFL 529 13.2 µM | SK-MEL-28 14.8 µM | RXF 393 13.4 µM | HCT-116 17.6 µM | EKVX 15.2 µM | M14 15.5 µM | SK-MEL-2 9.48 µM | SNB-19 14.2 µM

CC(C(=O)c1ccc(Cl)cc1)C1OC(=O)C(Cl)=C1Cl (configuration not stated)
inactive: COLO 205 23.9 µM | UACC-257 35.6 µM | TK-10 37.2 µM | SK-MEL-5 37.9 µM | CCRF-CEM 19 µM | SF-295 > 100 µM | LXFL 529 19.8 µM | SK-MEL-28 27.3 µM | RXF 393 19.7 µM | EKVX 39.4 µM | M14 34.1 µM | SK-MEL-2 23.2 µM | SNB-19 85.1 µM

COc1ccc([N+]2=NC(c3ccc([N+](=O)[O-])cc3)=NN(c3ccccc3)C2)cc1.[O-][Cl+3]([O-])([O-])[O-]
inactive: COLO 205 10 µM | UACC-257 > 100 µM | TK-10 > 100 µM | SK-MEL-5 28.4 µM | CCRF-CEM 21.2 µM | SF-295 74.8 µM | LXFL 529 47.3 µM | SK-MEL-28 > 100 µM | RXF 393 67.9 µM | HCT-116 65.5 µM | EKVX 91.2 µM | SNB-19 > 100 µM

CC1=C(C(=O)Nc2cc(=O)n(C)c(=O)n2C)C(c2cccc([N+](=O)[O-])c2)C(C(=O)Nc2cc(=O)n(C)c(=O)n2C)=C(C)N1
inactive: COLO 205 > 100 µM | UACC-257 > 100 µM | TK-10 > 100 µM | SK-MEL-5 74.6 µM | CCRF-CEM > 100 µM | SF-295 > 100 µM | LXFL 529 > 100 µM | SK-MEL-28 > 100 µM | RXF 393 > 100 µM | EKVX 15.9 µM | M14 > 100 µM | SK-MEL-2 > 100 µM | SNB-19 > 100 µM

O=C1CCC2(CC1)SCCCS2
inactive: COLO 205 > 100 µM | UACC-257 > 100 µM | TK-10 > 100 µM | SK-MEL-5 > 100 µM | CCRF-CEM > 100 µM | SF-295 > 100 µM | LXFL 529 > 100 µM | SK-MEL-28 > 100 µM | RXF 393 > 100 µM | EKVX > 100 µM | M14 > 100 µM | SK-MEL-2 > 100 µM | SNB-19 > 100 µM

O=C1c2ccccc2CC1C1(O)C(=O)Nc2ccccc21 (configuration not stated)
inactive: COLO 205 > 100 µM | UACC-257 > 100 µM | TK-10 > 100 µM | SK-MEL-5 > 100 µM | SF-295 > 100 µM | LXFL 529 > 100 µM | SK-MEL-28 > 100 µM | RXF 393 > 100 µM | HCT-116 > 100 µM | EKVX > 100 µM | M14 > 100 µM | SK-MEL-2 > 100 µM | SNB-19 > 100 µM

Cc1cc(O)c2c3c1C(=O)Oc1c(CO)c(O)c(C(=O)O)c(c1O3)C=NN=Cc1c3c(c(CO)c(O)c1C(=O)O)OC(=O)c1c(C)cc(O)c(c1O3)C=NN=C2
inactive: COLO 205 > 100 µM | UACC-257 > 100 µM | TK-10 > 100 µM | SK-MEL-5 40.2 µM | SF-295 > 100 µM | LXFL 529 > 100 µM | SK-MEL-28 > 100 µM | RXF 393 > 100 µM | HCT-116 > 100 µM | EKVX > 100 µM | M14 > 100 µM | SNB-19 > 100 µM

Cc1cc(Cl)ccc1NC(=O)/C(=N\NC(C)(C)C)C(C#N)c1nc(-c2ccc([N+](=O)[O-])cc2)cs1 (configuration not stated)
inactive: UACC-257 > 100 µM | TK-10 > 100 µM | SK-MEL-5 > 100 µM | CCRF-CEM > 100 µM | SF-295 > 100 µM | LXFL 529 > 100 µM | SK-MEL-28 > 100 µM | HCT-116 > 100 µM | EKVX > 100 µM | M14 > 100 µM | SK-MEL-2 > 100 µM | SNB-19 > 100 µM

CCCCCCN(N)C(=O)CC#N
inactive: COLO 205 96.2 µM | UACC-257 > 100 µM | TK-10 > 100 µM | SK-MEL-5 70.6 µM | CCRF-CEM > 100 µM | LXFL 529 > 100 µM | SK-MEL-28 > 100 µM | RXF 393 16.9 µM | HCT-116 47.6 µM | EKVX > 100 µM | M14 > 100 µM | SNB-19 > 10 µM

— ChEMBL document CHEMBL1201862, “PubChem BioAssay data set” (2004)
